Test results taken from patent US11866416B2, “Streptococcus mutans glucosyl transferase inhibitors for dental caries therapy” (UAB Research Foundation, priority 2018, dated 2024).
Converted amounts (≈) assume the structure as drawn. Like-named read-outs stand apart in the source and are kept apart here.

Assays:
[1] = system: S. mutans Gtfs; assay: Gtf zymographic assay with SDS-PAGE; type: biochemical, Streptococcus mutans; settings: for % Inhibition of GTFs at 10 μM: S. mutans GTF zymogram assay, NI = no inhibition up to 10 μM
Protocol: A well-established zymographic assay was used to determine enzymatic activity of Gtfs (Mattos-Graner et al. (2004) J. Clin. Microbiol. 42, […]). In brief, overnight S. mutans UA159 cultures were diluted 1:100 in fresh 5 mL THB with 50 μL of selective compounds at a series of concentrations. Treated bacteria were grown to OD470 of 1.0, and spun down by centrifugation at 4° C., and culture supernatants were collected and filtered through a 0.22-μm-pore-size filter membrane to remove residual bacterial cells and dialyzed at 4° C. against 0.02 M sodium phosphate buffer (pH 6.8), with 10 μM phenylmethylsulfonyl fluoride (PMSF), followed by a second dialysis against 0.2 mM sodium phosphate containing 10 μM PMSF. After dialysis, 4 mL of samples were concentrated to 40 μL by 100K Amicon Ultra-4 centrifugal filter (Merck Millipore Ltd.). For electrophoresis and zymographic analysis, 10 μL of each concentrated culture supernatant was applied to 8% SDS-PAGE in duplicate. One gel was used for protein staining with Coomassie blue dye, while the other one was subjected to zymographic assay as described (Mattos-Graner et al. (2004) J. Clin. Microbiol. 42, […]). The resultant white opaque glucan bands were visualized against a black background.
Inhibition of the activity of Gtfs determined by zymographic assays. Well established zymographic assay was used to determine enzymatic activity of Gtfs. In brief, overnight S. mutans UA159 cultures were diluted 1:100 in fresh 5 mL THB. Bacteria were grown to OD470 of 1.0, and spun down by centrifugation at 4° C. and culture supernatants were collected and filtered through a 0.22-μm-pore-size filter membrane to remove residual bacterial cells and dialyzed at 4° C. against 0.02 M sodium phosphate buffer (pH 6.8), with 10 μM phenylmethylsulfonyl fluoride (PMSF), followed by a second dialysis against 0.2 mM sodium phosphate containing 10 μM PMSF. After dialysis, 4 mL of samples were concentrated to 40 μL by 100K Amicon Ultra-4 centrifugal filter (Merk Millipore Ltd.). For electrophoresis and zymographic analysis, 10 μL of each concentrated culture supernatant was applied to 8% SDS-PAGE in duplicate. One gel was used for protein staining with Coomassie blue dye, while the other one was subjected to zymographic assay. For zymogram analysis, following electrophoretic separation, gels were washed twice for 15 min each with renaturing buffer containing 2.5% Triton X-100. Gels were then incubated for 18 h at 37° C. with 0.2 M sodium phosphate buffer (pH 6.5) containing 0.2% dextran T70, 5% sucrose, and varying concentrations of the small molecule inhibitors. The reactions were stopped by washing gels with distilled water at 4° C. for 10 min, and digital images of the resultant white opaque glucan bands were visualized against a black background and captured using a digital camera.
Inhibition of the activity of Gtfs determined by zymographic assays. A well-established zymographic assay was used to determine enzymatic activity of Gtfs (Mattos-Graner, R. O., Napimoga, M. H., Fukushima, K., Duncan, M. J., Smith, D. J., J Clin Microbiol, 2004, 42, 4586). In brief, overnight S. mutans UA159 cultures were diluted 1:100 in fresh 5 mL THB with 50 μL of selective compounds at a series of concentrations. Treated bacteria were grown to OD470 of 1.0, and spun down by centrifugation at 4° C., and culture supernatants were collected and filtered through a 0.22-μm-pore-size filter membrane to remove residual bacterial cells and dialyzed at 4° C. against 0.02 M sodium phosphate buffer (pH 6.8), with 10 μM phenylmethylsulfonyl fluoride (PMSF), followed by a second dialysis against 0.2 mM sodium phosphate containing 10 μM PMSF. After dialysis, 4 mL of samples were concentrated to 40 μL by 100K Amicon Ultra-4 centrifugal filter (Merk Millipore Ltd.). For electrophoresis and zymographic analysis, 10 μL of each concentrated culture supernatant was applied to 8% SDS-PAGE in duplicate. […]

[2] = system: S. mutans; assay: microbe, parasite or virus in culture; type: cell-based, Streptococcus mutans; settings: for IC50 / MIC50: Streptococcus mutans; for IC50: Table 7, synthesized analogs of compound 9, read-out: Growth IC50; for SI (selectivity index): Table 7, growth IC50 value divided by biofilm IC50 value; for Selectivity: growth versus biofilm
Protocol: Cell viability of S. mutans, S. gordonii, S. sanguinis, Aggregatibacter actinomycetemcomitans and Actinomyces. […] The number of colony-forming units (CFU) per milliliter of each sample treated with selected compounds at different concentrations was enumerated after incubation for 24 h at 37° C. and compared to the values obtained from the DMSO control group. Overnight broth cultures were transferred by 1:50 dilutions into fresh THB medium and were allowed to grow until mid-exponential phase (OD470 nm 0.6) before transfer to 96-well plates containing desired concentration of the compound. After 16 h incubation, bacterial growth was measured at OD470, and normalized to the DMSO control (100%).
Cell viability of S. mutans and commensal S. gordonii and S. sanguinis. Effects of lead small molecules on cell viability were examined. The number of colony-forming units (CFU) per milliliter for each compound at different concentrations was determined after incubation for 24 h at 37° C. and compared to the values obtained from the DMSO control group.
Cell viability of S. mutans and commensal S. gordonii and S. sanguinis. […] DMSO served as a control group and provided a relative comparison for the number of colony-forming units (CFU) per milliliter for each compound at different concentrations was determined after incubation for 24 h at 37° C. The final concentration of DMSO used in the assays was 1%.

[3] = system: S. mutans biofilm; assay: S. mutans biofilm formation and inhibition assay (96-well plates, crystal violet); type: cell-based, Streptococcus mutans
Protocol: Biofilm assays using 96-well flat-bottom polystyrene microtiter plates were performed to evaluate S. mutans biofilm formation at various conditions as described (Liu et al. (2011) Antimicrobial Agents and Chemotherapy 55, 2679; Zhang et al. (2015) International Journal of Antimicrobial Agents 46, 174), the disclosures of which are incorporated herein by reference in their entirety). Each assay was replicated three times. Compounds that inhibited biofilm formation at minimum concentration (MBIC) were determined by serial dilutions.
S. mutans biofilm formation and inhibition assays. […] Each assay was replicated three times. Minimum biofilm inhibitory concentration (MBIC) of compounds was determined by serial dilutions.
S. mutans biofilm formation and inhibition assays. Biofilm assays using 96-well flat-bottom polystyrene microtiter plates were performed to evaluate S. mutans biofilm formation at various conditions as described. Each assay was replicated […]. Compounds that inhibited 50% biofilm formation were determined by serial dilutions.
S. mutans biofilm formation and inhibition assays. A well-established protocol to study S. mutans biofilm formation in 96-well flat-bottom polystyrene microtiter plates was used, in triplicate (Mattos-Graner, R. O.; Napimoga, M. H.; Fukushima, K.; Duncan, M. J.; Smith, D. J., Comparative analysis of Gtf isozyme production and diversity in isolates of Streptococcus mutans with different biofilm growth phenotypes. Journal of clinical microbiology 2004, 42 (10), 4586-4592). The stock solutions were made up in 100% DMSO, and final concentration of DMSO used in the assays was 1%. Minimum biofilm inhibitory concentration (MBIC) of compounds was determined by serial dilutions.

[4] = Streptococcus mutans, Table 7, synthesized analogs of compound 9, read-out: Biofilm IC50
[5] = Table 2, >300 = no inhibition up to 300 μM, read-out: Growth Inhibition MIC50
[6] = Streptococcus mutans, Table 1, >500 = no inhibition up to 500 μM, read-out: Biofilm Inhibition IC50
[7] = Streptococcus mutans, Table 2, read-out: Biofilm Inhibition IC50
[8] = Streptococcus mutans, Table 5, >500 = no inhibition up to 500 μM, read-out: Biofilm Inhibition IC50
[9] = Table 3, >300 = no inhibition up to 300 μM, NI = no inhibition up to 400 μM, read-out: Growth Inhibition MIC50
[10] = Streptococcus mutans, Table 3, read-out: Biofilm Inhibition IC50

Q: Which results are given for `O=C(/C=C/c1cc(O)c(O)cc1O)c1ccc(O)cc1` [Compound 18d, (E)-1-(4-hydroxyphenyl)-3-(2,4,5-trihydroxyphenyl)prop-2-en-1-one]?
A: Gtf enzyme inhibitory activity, glucan bands in zymogram ([1]; 50 μM added to cultures): some weak inhibition of the GtfC band; IC50 [2]: 376 ± 6 µM; SI (selectivity index) [2]: 4.9; IC50 [3, 4]: 76 µM

Q: `C(=C\c1ccccc1)/c1ccccc1` [E-stilbene, reference compound] was tested. Which “glucan production in zymogram assay” value ([1]; stilbenes, versus DMSO control) did it give?
A: no glucan inhibition

Q: Which results are given for `NC(=O)c1ccccc1NC(=O)c1cc2cc([N+](=O)[O-])ccc2s1` [Compound 3A]?
A: % Inhibition of GTFs at 10 μM [1]: 30.3%; MIC50 [2, 5]: > 300 µM; IC50 [3, 6]: 16.7 µM; IC50 [3, 7]: 16.7 µM; IC50 [3, 8]: 16.7 µM

Q: For `O=C(/C=C/c1cc(O)c(O)cc1O)c1ccccc1O` [Compound 18c, (E/Z)-1-(2-hydroxyphenyl)-3-(2,4,5-trihydroxyphenyl)prop-2-en-1-one], which “production of Gtfs, protein level on SDS-PAGE” value ([1]; 50 μM added to cultures) is on record?
A: largest inhibition

Q: What about the “selectivity (index / fold) for biofilm over growth” value [2] of the same molecule?
A: 1.5

Q: What about the IC50 [2] of the same molecule?
A: 323 ± 36 µM

Q: And the “SI (selectivity index)” value [2]?
A: 1.5

Q: And the IC50 [3, 4]?
A: 224 ± 23 µM

Q: Which “% Inhibition of GTFs at 10 μM” value [1] does the source give for `COC(=O)c1ccc(NC(=O)c2cc3cc([N+](=O)[O-])ccc3s2)cc1` [Compound 3O] here?
A: 54.8%

Q: And the MIC50 [2, 5]?
A: > 300 µM

Q: And the IC50 [3, 6]?
A: 9.6 µM

Q: What about the IC50 [3, 7] of the same molecule?
A: 9.6 µM

Q: And the IC50 [3, 8]?
A: 9.6 µM

Q: For `NC(=O)c1ccccc1NC(=O)c1cnc2ccccc2c1` [Compound 3I], which “% Inhibition of GTFs at 10 μM” value [1] is on record?
A: 36.6%

Q: What about the MIC50 [2, 5] of the same molecule?
A: > 300 µM

Q: What about the IC50 [3, 6] of the same molecule?
A: 15.3 µM

Q: What about the IC50 [3, 7] of the same molecule?
A: 15.3 µM

Q: And the IC50 [3, 8]?
A: 15.3 µM

Q: With `NC(=O)c1cccc(NC(=O)c2ccc3ccccc3c2)c1` [AT] as the molecule, how does the MIC50 [2, 5] read?
A: > 300 µM

Q: What about the IC50 [3, 6] of the same molecule?
A: 67.7 µM

Q: And the IC50 [3, 7]?
A: 67.7 µM

Q: What does the source list for `N=C(N)c1ccc(/C=C/c2ccc(C(=N)N)cc2O)cc1` [Compound 5]?
A: S. mutans growth IC50 / MIC50 [2]: 179 µM; effect on S. mutans growth ([2]; chalcones, up to 200 μM): did not possess any bactericidal or anti-biofilm properties; effect on S. mutans biofilm in the preliminary screen ([3]; chalcones, 200 μM): did not possess any bactericidal or anti-biofilm properties; IC50 ([3]; read-out: S. mutans biofilm IC50): 104 µM

Q: For `O=C(/C=C/c1ccc(O)cc1)c1ccccc1O` [SN-II-113], which MIC50 [2, 9] is on record?
A: > 300 µM

Q: What about the IC50 [3, 10] of the same molecule?
A: 213 ± 7 µM

Q: Which results are given for `O=C(/C=C/c1ccc(O)c(O)c1)O[C@@H]1C[C@](O)(C(=O)O)C[C@@H](O)[C@H]1O` [Entry 10]?
A: MIC50 ([2]; Table 4, stilbenes, average of at least 5 measurements, NI = no inhibition, read-out: Growth MIC50): 1720 ± 53 µM (≈ 611 µg/mL); Selectivity ([2]; Table 4, stilbenes): 3.3; Growth MIC50 ([2]; Table 8, stilbenes, average of at least 5 measurements, NI = no inhibition): 1724 ± 53 µM; Selectivity ([2]; Table 8, stilbenes): 3.3; IC50 ([3]; Streptococcus mutans, Table 4, stilbenes, NI = no inhibition, read-out: Biofilm IC50): 518 ± 85 µM; IC50 ([3]; Streptococcus mutans, Table 8, stilbenes, NI = no inhibition, read-out: Biofilm IC50): 518 ± 85 µM

Q: Which MIC50 [2, 5] does the source give for `NC(=O)c1cccc(NC(=O)c2cnc3ccccc3c2)c1` [Compound 3R] here?
A: > 300 µM

Q: And the IC50 [3, 6]?
A: 8.6 µM

Q: And the IC50 [3, 7]?
A: 8.6 µM

Q: `O=C(/C=C/c1ccc(O)cc1O)c1ccccc1O` [SN-II-32] was tested. Which MIC50 [2, 9] did it give?
A: 327 ± 24 µM (≈ 83.8 µg/mL)

Q: What about the IC50 [3, 10] of the same molecule?
A: 250 ± 16 µM
